From patent publication US11717569B2, “Tolerogenic synthetic nanocarriers” (Selecta Biosciences, Inc., priority 2011, dated 2023)

Columns and labels:
iNKT cells = test: CD69 activation on liver iNKT cells in vivo; details: mice that received aGC
Protocol: Mice were designated to groups that received PBS alone, sol aGC+solRAPA, sol aGC+NP RAPA. Mice were injected at 9 am and at 9.30 AM received BrefeldinA i.v. to prevent release of intracellular cytokines produced. At 1 pm, mice were sacrificed and the liver was perfused with PBS and processed to obtain a single cell suspension enriched for lymphocytes. Cells were stained with cell surface markers for iNKT cells (agc-loaded CD1d tetramers) and T cells receptor (TCRb) and activation marker CD69. Cells were acquired on a FacsCanto flow cytometer and analyzed on by FlowJo.

[1] = test system: Treg cells (CD4+CD25highFoxP3+); test: Antigen-specific tolerogenic dendritic cells (tDC) activity on Treg cell development; assay type: cell-based, OTII mice; details: FIG. 3; unstimulated 1.3%
Protocol: The assay included the use of OTII mice which have a transgenic T cell receptor specific for an immune-dominant ovalbumin peptide (323-339). In order to create antigen-specific tDCs, CD11c^+ splenocytes were isolated, and the ovalbumin peptide (323-339) added in vitro at 1 μg/ml or no antigen. Soluble or nanocarrier-encapsulated rapamycin was then added to the DCs for 2 hours which were then washed extensively to remove free rapamycin from the culture. Purified responder CD4^+CD25^− cells were isolated from OTII mice and added to tDC at a 10:1 T to DC ratio. The mixture of tDC and OTII T cells were then cultured for 4-5 days, and the frequency of Treg cells (CD4^+CD25highFoxP3^+) were analyzed by flow cytometry as shown in FIG. 1. Regions were selected based on isotype controls.
Free rapamycin or synthetic nanocarriers containing rapamycin were combined with free soluble Ovalbumin (323-339) to evaluate induction of tDC (FIG. 2). […] Briefly, antigen specific tDC were obtained by isolating dendritic cells (CD11c^+ splenocytes) and culturing them in combination with the Ovalbumin (323-339) peptide plus soluble or nanocarrier encapsulated rapamycin (Synthetic Nanocarrier #s 13, 14, 15 and 16) for 2 hours followed by extensive washing. […] The mixture of tDC and OTII T cells were then cultured for 4-5 days, and the frequency of Treg cells (CD4^+CD25highFoxP3^+) were analyzed by flow cytometry.

CCCCCCCCCCCCCCCCCCCCCCCCCC(=O)N[C@@H](CO[C@H]1O[C@H](CO)[C@H](O)[C@H](O)[C@H]1O)[C@H](O)[C@H](O)CCCCCCCCCCCCCC [aGC, α-Galactosyl Ceramide (KRN7000)]
iNKT cell activation (cytokine production and up regulation of CD69) (iNKT cells): activated

CO[C@H]1C[C@@H]2CC[C@@H](C)[C@@](O)(O2)C(=O)C(=O)N2CCCC[C@H]2C(=O)O[C@H]([C@H](C)C[C@@H]2CC[C@@H](O)[C@H](OC)C2)CC(=O)[C@H](C)/C=C(\C)[C@@H](O)[C@@H](OC)C(=O)[C@H](C)C[C@H](C)/C=C/C=C/C=C/1C [free rapamycin, Rapamycin]
induction of FoxP3 expressing cells [1]: 2.7%
